Data: ChEMBL document CHEMBL1128627, “Photoactivatable analogues of a Substance P non-peptidic antagonist, for probing the antagonist binding site of the NK1 receptor” (Bioorg Med Chem Lett, 1995)

Target: Substance-P receptor (Homo sapiens, UniProt P25103)
Assay: In vitro binding affinity against human NK1 receptor expressed in CHO cells using [3H]-substance P as radioligand
Type: cell-based

Chain of Substance-P receptor (P25103 whole entry): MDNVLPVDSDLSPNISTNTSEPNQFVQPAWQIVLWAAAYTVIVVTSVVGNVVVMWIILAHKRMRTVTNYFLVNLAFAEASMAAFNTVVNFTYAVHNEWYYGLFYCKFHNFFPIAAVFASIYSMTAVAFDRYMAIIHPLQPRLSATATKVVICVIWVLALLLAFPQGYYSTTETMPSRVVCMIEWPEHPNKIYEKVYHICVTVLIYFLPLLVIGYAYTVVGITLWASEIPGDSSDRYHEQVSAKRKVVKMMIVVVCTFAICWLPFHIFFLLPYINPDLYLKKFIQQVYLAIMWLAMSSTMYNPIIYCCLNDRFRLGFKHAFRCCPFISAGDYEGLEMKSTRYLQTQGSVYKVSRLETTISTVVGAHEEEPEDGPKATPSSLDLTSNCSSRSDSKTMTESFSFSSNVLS

Ki [nM]	Compound
0.794	COc1ccc(C2(C(F)(F)F)N=N2)cc1CN[C@H]1CCCN[C@H]1c1ccccc1
0.398	COc1ccc(C(=O)c2ccccc2)cc1CN[C@H]1CCCN[C@H]1c1ccccc1
